# Experiments:
# PRMT1 = target: T1, PRMT1 (Homo sapiens, UniProt Q99873); test: PRMT1 biochemical assay (3H-SAM Flashplate, histone H4 peptide substrate); conditions: GST-tagged full-length human PRMT1 0.5 nM, 30 min preincubation, peptide 20 nM
# T1 construct: GST-tagged PRMT1; made in house; host or cells: High Five insect cells (baculovirus, pFastBacI)
# Source text: S-adenosylmethionine (SAM), S-adenosylhomocysteine (SAH), bicine, Tween20, dimethylsulfoxide (DMSO), bovine skin gelatin (BSG), and Tris(2-carboxyethyl)phosphine hydrochloride solution (TCEP) were purchased from Sigma-Aldrich at the highest level of purity possible. ^3H-SAM was purchase from American Radiolabeled Chemicals with a specific activity of 80 Ci/mmol. 384-well streptavidin Flashplates were purchased from PerkinElmer.
# Peptide representative of human histone H4 residues 36-50 was synthesized with an N-terminal linker-affinity tag motif and a C-terminal amide cap by 21st Century Biochemicals. The peptide was purified by high-performance liquid chromatography (HPLC) to greater than 95% purity and confirmed by liquid chromatography mass spectrometry (LC-MS). The sequence was Biot-Ahx-RLARRGGVKRISGLI-amide (SEQ ID NO.: 1).
# Full-length human PRMT1 isoform 1 (NM_001536.5) transcript clone was amplified from an HEK 293 cDNA library, incorporating flanking 5′ sequence encoding a FLAG tag (DYKDDDDK) (SEQ ID NO.:2) fused directly to Met 1 of PRMT1. The amplified gene was subcloned into pFastBacI (Life Technologies) modified to encode an N-terminal GST tag and a TEV cleavage sequence ([…] […] […] […]) (SEQ ID NO.:3) fused to Asp of the Flag tag of PRMT1.
# Recombinant baculovirus were generated according to Bac-to-Bac kit instructions (Life Technologies). Protein over-expression was accomplished by infecting exponentially growing High Five insect cell culture at 1.5×10^6 cell/ml with 1:100 ratio of virus. Infections were carried out at 27° C. for 48 hours, harvested by centrifugation, and stored at −80° C. for purification. […]
# [1] = tested on: mono-methyl arginine in RKO cells; test: RKO methylation assay (In Cell Western for mono-methyl arginine and DNA content); assay type: cell-based; conditions: 72 hours, percent activation of mono-methyl arginine signal normalised to DNA content
# Source text: RKO adherent cells were purchased from ATCC (American Type Culture Collection), Manassas, Va., USA. DMEM/Glutamax medium, penicillin-streptomycin, heat inactivated fetal bovine serum, 0.05% trypsin and D-PBS were purchased from Life Technologies, Grand Island, N.Y., USA. Odyssey blocking buffer, 800CW goat anti-rabbit IgG (H+L) antibody, and Licor Odyssey infrared scanner were purchased from Licor Biosciences, Lincoln, Nebr., USA. Mono-methyl arginine antibody was purchased from Cell Signaling Technology, Danvers, Mass., USA.
# Methanol was purchased from VWR, Franklin, Mass., USA. 10% Tween 20 was purchased from KPL, Inc., Gaithersburg, Md., USA. DRAQ5 was purchased from Biostatus Limited, Leicestershire, UK. […]
# First, the ratio for each well was determined by:
# Each plate included fourteen control wells of DMSO only treatment (minimum activation) as well as fourteen control wells for maximum activation treated with 20 μM of a reference compound. The average of the ratio values for each control type was calculated and used to determine the percent activation for each test well in the plate. […] Percent activation was determined and EC30 curves were generated using triplicate wells per concentration of compound.
# T1 sequence (Q99873 with tags, fused parts or gaps): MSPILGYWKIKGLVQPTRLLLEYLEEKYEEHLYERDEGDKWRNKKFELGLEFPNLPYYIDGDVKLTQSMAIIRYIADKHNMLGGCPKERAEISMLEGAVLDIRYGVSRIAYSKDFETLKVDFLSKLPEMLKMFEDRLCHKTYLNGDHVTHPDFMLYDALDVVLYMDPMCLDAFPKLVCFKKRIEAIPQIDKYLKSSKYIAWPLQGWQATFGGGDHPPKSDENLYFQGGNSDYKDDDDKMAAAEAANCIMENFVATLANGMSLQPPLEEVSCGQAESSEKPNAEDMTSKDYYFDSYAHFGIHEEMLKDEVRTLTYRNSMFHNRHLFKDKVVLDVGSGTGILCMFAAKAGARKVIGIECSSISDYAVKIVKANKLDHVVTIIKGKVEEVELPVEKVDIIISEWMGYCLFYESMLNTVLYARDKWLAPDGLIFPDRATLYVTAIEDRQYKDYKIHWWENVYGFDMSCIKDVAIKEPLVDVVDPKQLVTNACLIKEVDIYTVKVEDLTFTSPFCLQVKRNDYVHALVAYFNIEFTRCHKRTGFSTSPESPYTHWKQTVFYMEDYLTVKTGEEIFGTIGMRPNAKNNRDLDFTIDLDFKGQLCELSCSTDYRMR
IC50 (PRMT1),Compound,In Cell Western EC30 [1]
< 100 nM,"C=C(C)C(=O)Nc1ccc(-c2[nH]ncc2CN(C)CCNC)cc1 [Compound 1, N-(4-(4-((methyl(2-(methylamino)ethyl)amino)methyl)-1H-pyrazol-3-yl)phenyl)methacrylamide]",B (“B” indicates an EC30 of 3.01-12.00 μM)
101 to 1000 nM,"C=CC(=O)Nc1ccc(-c2[nH]ncc2CN(C)CCNC)cc1 [Compound 2, N-(4-(4-((methyl(2-(methylamino)ethyl)amino)methyl)-1H-pyrazol-3-yl)phenyl)acrylamide]",C (“C” indicates an EC30 ≧ 12.01 μM)

Compound,IC50 (PRMT1),In Cell Western EC30 [1]
3-methyl-N-(3-(4-((methyl (2-(methylamino)ethyl)amino)methyl)-1H-pyrazol-3-yl)phenyl)but-2-enamide [Compound 3],101 to 1000 nM,
